We go through 41 compounds from patent US11987572B2, “Therapeutic compounds and methods of use thereof” (REGENTS OF THE UNIVERSITY OF MINNESOTA, priority 2019, dated 2024).

The target in the first test is T1, p38α (Homo sapiens, UniProt Q16539).
T1 construct: phage display fusion; purchased Eurofins DiscoverX (Fremont California), KINOMEscan service
T1 sequence (Q16539 whole entry, the tested form may be a part): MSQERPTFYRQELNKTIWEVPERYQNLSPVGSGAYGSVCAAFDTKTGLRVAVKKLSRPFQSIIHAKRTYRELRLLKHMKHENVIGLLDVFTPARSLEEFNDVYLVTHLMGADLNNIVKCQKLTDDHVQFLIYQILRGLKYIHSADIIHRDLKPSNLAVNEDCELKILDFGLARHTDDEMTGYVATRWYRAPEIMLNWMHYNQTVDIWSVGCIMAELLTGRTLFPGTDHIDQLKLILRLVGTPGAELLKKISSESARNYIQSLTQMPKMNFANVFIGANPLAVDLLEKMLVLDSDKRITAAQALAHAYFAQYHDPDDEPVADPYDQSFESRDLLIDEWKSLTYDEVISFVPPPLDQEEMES
Briefly: p38 competitive inhibition assay (KINOMEscan, Eurofins DiscoverX). The settings on record: mean of two biological replicates. Type of test: binding.
In the case of `Cc1cc(C)cc(Nc2cccc(-c3c(C)nnn3C3CCNCC3)n2)c1`, the Kd (in general, the free concentration of one partner at which half of the binding sites on the other are occupied at equilibrium, for simple one-to-one binding) is greater than 0.025 µM.
Regarding `Cc1cc(C)cc(Nc2nccc(-c3c(-c4ccc(F)cc4)nnn3C3CCNCC3)n2)c1`, the Kd worked out at 0.12 ± 0.051 µM.
`Cc1cc(C)cc(Oc2cccc(-c3c(-c4ccc(C(F)(F)F)cc4)ncn3C3CCN(CCN)CC3)n2)c1` showed a Kd greater than 30 µM.

The target of another test is T2, BRD4-D1 (Homo sapiens, UniProt O60885).
T2 construct: His6 BRD4 D1 were expressed and purified as reported by A. K. Urick; His6; made in house
Briefly: Fluorescence anisotropy competition with Fl-JQ1. Type of test: binding. Particulars: mean and SEM of three biological replicates, read-out: BRD4 D1 IC50 by FA.
As for `Cc1cc(C)cc(Oc2nccc(-c3c(C(C)C)nnn3C3CCNCC3)n2)c1`, the IC50 (usually the point on the concentration scale where inhibition reaches its midpoint) was greater than 100 µM.
Still for that read-out and setting: the figure for `CCCc1nnn(C2CCNCC2)c1-c1ccnc(Oc2cc(C)cc(C)c2)n1` is greater than 100 µM; for `Cc1cc(C)cc(Oc2cncc(-c3c(C)nnn3C3CCNCC3)c2)c1` it is greater than 100 µM.
On the same count and under the same terms, in the case of `Cc1cc(C)cc(Oc2cc(-c3c(C)nnn3C3CCNCC3)ccn2)c1` it was 97 ± 2.6 µM; in that of `Cc1cc(C)cc(Oc2ccnc(-c3c(C)nnn3C3CCNCC3)c2)c1`, greater than 100 µM.
Still for that read-out and setting: the figure for `Cc1cc(C)cc(Nc2cccc(-c3c(C)nnn3C3CCNCC3)n2)c1` is 4.5 ± 0.35 µM.
`Cc1cc(C)cc(Nc2nccc(-c3c(-c4ccc(F)cc4)nnn3C3CCNCC3)n2)c1`: the IC50 is greater than 100 µM.
On the same count and under the same terms, in the case of `Cc1cc(C)cc(Oc2nccc(-c3c(C4CC4)nnn3C3CCN(C(=N)N)CC3)n2)c1` it was 61 ± 8.1 µM.
Still for that read-out and setting: in the case of `Cc1cc(C)cc(Nc2cccc(-c3c(C)nnn3C3CCN(C(=N)N)CC3)n2)c1` it was 4.5 ± 0.35 µM; in that of `Cc1ccc(-c2ncn(C3CCNCC3)c2-c2ccnc(Nc3cc(C)cc(C)c3)n2)cc1`, 1.2 ± 0.2 µM; in that of `Cc1cc(C)cc(Nc2nccc(-c3c(-c4ccc(Cl)cc4)ncn3C3CCN(C(=N)N)CC3)n2)c1`, 1.6 µM.
On the same count and under the same terms, the figure for `Cc1cc(C)cc(Nc2nccc(-c3c(-c4ccccc4)ncn3C3CCNCC3)n2)c1` is 4.5 ± 0.2 µM.
For the compound `Cc1ccc(Nc2nccc(-c3c(-c4ccc(F)cc4)ncn3C3CCNCC3)n2)cc1C`, the IC50 was 1.3 ± 0.2 µM.
For the compound `Fc1ccc(-c2ncn(C3CCNCC3)c2-c2ccnc(Oc3cc(F)cc(F)c3)n2)cc1`, the IC50 is greater than 250 µM.
On the same count and under the same terms, in the case of `Cc1cc(C)cc(Nc2nccc(-c3c(-c4ccc(C(F)(F)F)cc4)ncn3C3CCN(CCN(C)C)CC3)n2)c1` it was 0.15 ± 0.03 µM; in that of `CC(=O)NCCN1CCC(n2cnc(-c3ccc(C(F)(F)F)cc3)c2-c2ccnc(Nc3cc(C)cc(C)c3)n2)CC1`, 0.42 ± 0.01 µM; in that of `Cc1cc(C)cc(Oc2cccc(-c3c(-c4ccc(C(F)(F)F)cc4)ncn3C3CCN(CCN)CC3)n2)c1`, 1.1 ± 0.01 µM.
Still for that read-out and setting: the figure for `Cc1cc(C)cc(Oc2nccc(-c3c(C)nnn3C3CCN(C(=N)N)CC3)n2)c1` [drawing 222] is 9.7 ± 1.8 µM; for `Cc1cc(C)cc(Oc2cccc(-c3c(C)nnn3C3CCN(C(=N)N)CC3)c2)c1` [drawing 223] it is 12 ± 1.1 µM; for `Cc1cc(C)cc(Oc2cccc(-c3c(C)nnn3C3CCN(C(=N)N)CC3)n2)c1` [drawing 224] it is 3.6 ± 0.05 µM.
On the same count and under the same terms, in the case of `Cc1cc(C)cc(Oc2cc(-c3c(C)nnn3C3CCN(C(=N)N)CC3)ccn2)c1` [drawing 225] it was 97 ± 2.6 µM; in that of `Cc1cc(C)cc(Oc2ccnc(-c3c(C)nnn3C3CCN(C(=N)N)CC3)c2)c1` [drawing 227], greater than 100 µM; in that of `CCC(C)c1cc(C)cc(Oc2cccc(-c3c(C)nnn3C3CCNCC3)n2)c1` (centres unmarked) [drawing 252], 3.21 ± 0.3 µM.
With `Cc1cc(Oc2cccc(-c3c(C)nnn3C3CCNCC3)n2)cc(C2CCCC2)c1` [drawing 253], the IC50 amounted to 4.44 µM.
On the same count and under the same terms, the figure for `CCCCc1cc(CCCC)cc(Oc2cccc(-c3c(C)nnn3C3CCNCC3)n2)c1` [drawing 259] is 8.61 µM; for `Cc1nnn(C2CCNCC2)c1-c1cccc(Oc2cc(C3CCCCC3)cc(C3CCCCC3)c2)n1` [drawing 261] it is 62.6 µM.

The test is the same for the next values; noted with them: mean and standard deviation of three independent trials, read-out: IC50 BRD4-D1.
Regarding `Cc1cc(C)cc(Oc2nccc(-c3c(C)nnn3C3CCNCC3)n2)c1`, the IC50 turned out to be 3.01 µM.
The same measure, in the same setting: the figure for `Cc1cc(C)cc(Oc2nccc(-c3c(C)nnn3C3CCN(C(=N)N)CC3)n2)c1` [drawing 179] is 9.7 ± 1.8 µM; for `Cc1cc(C)cc(Oc2cccc(-c3c(C)nnn3C3CCN(C(=N)N)CC3)c2)c1` [drawing 180] it is 12 ± 1.1 µM.
Take `Cc1cc(C)cc(Oc2cccc(-c3c(C)nnn3C3CCN(C(=N)N)CC3)n2)c1` [drawing 181]: the IC50 was 3.6 ± 0.05 µM.
Still for that read-out and setting: the figure for `Cc1cc(C)cc(Oc2cc(-c3c(C)nnn3C3CCN(C(=N)N)CC3)ccn2)c1` [drawing 182] is 97 ± 2.6 µM; for `Cc1cc(C)cc(Oc2ccnc(-c3c(C)nnn3C3CCN(C(=N)N)CC3)c2)c1` [drawing 184] it is greater than 100 µM.
On the same count and under the same terms, in the case of `CCC(C)c1cc(C)cc(Oc2cccc(-c3c(C)nnn3C3CCNCC3)n2)c1` (centres unmarked) [drawing 188] it was 3.21 ± 0.3 µM; in that of `Cc1cc(Oc2cccc(-c3c(C)nnn3C3CCNCC3)n2)cc(C2CCCC2)c1` [drawing 189], 4.44 µM.
For `CCCCc1cc(CCCC)cc(Oc2cccc(-c3c(C)nnn3C3CCNCC3)n2)c1` [drawing 195], the IC50 came to 8.61 µM.
Take `Cc1nnn(C2CCNCC2)c1-c1cccc(Oc2cc(C3CCCCC3)cc(C3CCCCC3)c2)n1` [drawing 197]: the IC50 stood at 62.6 µM.

For a further test, the target named is T3, BRD4-D2 (Homo sapiens, UniProt O60885).
T3 construct: the second bromodomain of BRD4 (residues 333-460); host or cells: E. coli BL21 Star (DE3)
Briefly: Fluorescence anisotropy competition with Fl-JQ1. Type of test: binding.
Conditions: not given
Turning to `Cc1cc(C)cc(Oc2nccc(-c3c(C)nnn3C3CCNCC3)n2)c1`, the IC50 was 5.87 µM.
`Cc1cc(Oc2cccc(-c3c(C)nnn3C3CCNCC3)n2)cc(C(C)C)c1` [drawing 187]: the IC50 was 4.76 µM.
On the same count and under the same terms, the figure for `CCC(C)c1cc(C)cc(Oc2cccc(-c3c(C)nnn3C3CCNCC3)n2)c1` (centres unmarked) [drawing 188] is 7.35 µM; for `Cc1cc(Oc2cccc(-c3c(C)nnn3C3CCNCC3)n2)cc(C2CCCC2)c1` [drawing 189] it is 7.35 µM.
The same measure, in the same setting: the figure for `CCCCc1cc(CCCC)cc(Oc2cccc(-c3c(C)nnn3C3CCNCC3)n2)c1` [drawing 195] is 27.7 µM; for `Cc1nnn(C2CCNCC2)c1-c1cccc(Oc2cc(C(F)(F)F)cc(C(F)(F)F)c2)n1` [drawing 199] it is 45.6 µM.

Another test has as its target T4, His9-BRD4 D1 (Homo sapiens, UniProt O60885).
T4 construct: 7.5-60 nM for His9-tagged BRD4 D1; made in house; host or cells: E. coli BL21(DE3) with pRARE
Briefly: AlphaScreen assay with His9-BRD4 D1. Type of test: binding. The settings on record: mean of two technical replicates. (In general: In Alpha technology, singlet oxygen from a donor bead excites a nearby acceptor bead.)
Consider `Cc1ccc(-c2ncn(C3CCNCC3)c2-c2ccnc(Nc3cc(C)cc(C)c3)n2)cc1`, for which it took 1.1 µM to reach half-maximal inhibition (IC50).
`Cc1cc(C)cc(Nc2nccc(-c3c(-c4ccc(Cl)cc4)ncn3C3CCN(C(=N)N)CC3)n2)c1` had an IC50 of 1.4 µM.
The same measure, in the same setting: in the case of `Cc1cc(C)cc(Nc2nccc(-c3c(-c4ccccc4)ncn3C3CCNCC3)n2)c1` it was 2.6 µM.
Regarding `Cc1cc(C)cc(Nc2nccc(-c3c(CO)nnn3C3CCNCC3)n2)c1`, the IC50 turned out to be 160 µM.
The same measure, in the same setting: the figure for `Cc1cc(C)cc(Nc2nccc(-c3c(-c4ccc(C(F)(F)F)cc4)ncn3C3CCN(CCN(C)C)CC3)n2)c1` is 0.2 µM.
The same measure, in the same setting: in the case of `CC(=O)NCCN1CCC(n2cnc(-c3ccc(C(F)(F)F)cc3)c2-c2ccnc(Nc3cc(C)cc(C)c3)n2)CC1` it was 1.5 µM.
Still for that read-out and setting: in the case of `Cc1cc(C)cc(Oc2cccc(-c3c(-c4ccc(C(F)(F)F)cc4)ncn3C3CCN(CCN)CC3)n2)c1` it was 1.3 µM; in that of `Cc1cc(Oc2cccc(-c3c(C)nnn3C3CCNCC3)n2)cc(C(C)C)c1` [drawing 251], 4.76 µM; in that of `CCC(C)c1cc(C)cc(Oc2cccc(-c3c(C)nnn3C3CCNCC3)n2)c1` (centres unmarked) [drawing 252], 7.35 µM.
As for `CCCCc1cc(CCCC)cc(Oc2cccc(-c3c(C)nnn3C3CCNCC3)n2)c1` [drawing 259], the IC50 is 27.7 µM.
Still for that read-out and setting: the figure for `Cc1nnn(C2CCNCC2)c1-c1cccc(Oc2cc(C(F)(F)F)cc(C(F)(F)F)c2)n1` [drawing 263] is 45.6 µM.
